Test results as given in patent US11185096B2, “Sweet taste improving compositions including naringenin and steviol glycosides” (DR PEPPER/SEVEN UP, INC., priority 2014, dated 2021).

Tests used:
Assay type in all cases: in vivo
[1] = Taste evaluation of beverages with rebaudioside E, rebaudioside M or both, with and without naringenin (Example 3)
Method: In this example, samples were prepared to determine the taste attributes of reduced-calorie beverages including rebaudioside E, rebaudioside M, and combinations of rebaudiosides E and M, with and without naringenin. Beverages were prepared by adding rebaudiosides to the base solution shown in Table E. The tested concentrations of rebaudioside E, rebaudioside M, or a combination of both rebaudiosides, are shown in Table F. Beverages were then prepared by adding naringenin in various amounts, ranging from about 10 ppm to about 300 ppm, as shown in Table G. For example, naringenin was added to the base solution and each of the rebaudioside solutions shown in Table F. Further description of the beverages prepared in Example 3 is also shown in FIG. 2 of the drawings. Each of the prepared beverages was evaluated for changes or improvements for each of sweetness profile (upfront, middle, and back end sweetness), aftertaste (chemical, astringency), mouthfeel (cloying, thickness, thinness), and bitterness (relative to Rebaudioside A). For example, in a protocol to compare the bitterness of beverage samples to rebaudioside A, participants tasted each of an about 10 ml sample of the test beverage and an about 10 ml sample of a beverage including rebaudioside A (prepared in the same base solution shown in Table E). Relative bitterness was then immediately rated between the beverage samples.

[2] = Taste evaluation of reduced-calorie beverage (Table C base formula) with added naringenin, compared to a full-calorie beverage (Example 2)
Description: The base formula of Table C may provide about a 50% reduction in calories as compared to a typical full-calorie beverage.
For example, delocalization of sweetness, an attribute that relates to the beverage mouthfeel, was increased. […] Moreover, the aftertaste of naringenin-including samples became more syrupy, resulting in an aftertaste that was more similar to the full-calorie product. Improvements in sweetness and aftertaste were found for each of the above samples that included naringenin.

[3] = Sensory panel evaluation of naringenin in water (Example 1); settings: for Sweetness: sensory panelists
Method: Naringenin was evaluated in water as shown in Table B. Water used in all beverages described herein was specifically purified prior to use by processes well known in the art such as filtration, deionization, distillation, or reverse osmosis. Evaluation of the samples was performed using evaluation by sensory panelists. Beverage sampling comprised of taking an about 10 mL portion of the beverage into the mouth, holding the sample in the mouth, and rating the sweetness for each sample.

[4] = Table C base formula with naringenin 15 to 300 ppm

C=C1C[C@@]23CC[C@H]4[C@@](C)(CCC[C@@]4(C)C(=O)O[C@@H]4O[C@H](CO)[C@@H](O)[C@H](O)[C@H]4O[C@@H]4O[C@H](CO)[C@@H](O)[C@H](O)[C@H]4O)[C@@H]2CC[C@]1(O[C@@H]1O[C@H](CO)[C@@H](O)[C@H](O)[C@H]1O[C@@H]1O[C@H](CO)[C@@H](O)[C@H](O)[C@H]1O)C3 [rebaudioside E]
sweetness profile ([1]; Table E base with rebaudioside E 300 ppm, without naringenin, in comparison to sugar or rebaudioside M solutions): very flat sweetness profile and flat | mouthfeel and fullness ([1]; rebaudioside E alone without naringenin, compared to rebaudioside M): less mouthfeel and fullness

O=C1C[C@@H](c2ccc(O)cc2)Oc2cc(O)cc(O)c21 [naringenin]
delocalization of sweetness [2, 4]: increased | upfront sweetness profile [2, 4]: surprisingly increased | syrup qualities of the beverages (mouthfeel) ([2]; Table C base formula with naringenin 15 to 300 ppm, vs full-calorie beverage): increase syrup qualities | aftertaste ([2]; Table C base formula with naringenin 15 to 300 ppm, vs full-calorie product): more syrupy | sweetness profile ([2]; Table C base formula, 15 ppm naringenin): significantly improved | sweetness profile ([2]; Table C base formula, about 30 ppm naringenin): close to that of the full-calorie product | noticeable taste impressions or interference with flavors ([2]; Table C base formula, above 30 ppm up to about 300 ppm naringenin): did not provide any noticeable taste impressions | taste or flavor ([3]; in water, data of Table B (5 to 200 ppm)): does not elicit any taste or flavor | Sweetness ([3]; naringenin 5 ppm in water): No perceptible sweetness | Sweetness ([3]; naringenin 10 ppm in water): No perceptible sweetness | Sweetness ([3]; naringenin 20 ppm in water): No perceptible sweetness | Sweetness ([3]; naringenin 40 ppm in water): No perceptible sweetness | Sweetness ([3]; naringenin 80 ppm in water): No perceptible sweetness | Sweetness ([3]; naringenin 100 ppm in water): No perceptible sweetness | Sweetness ([3]; naringenin 200 ppm in water): No perceptible sweetness | overall perception ([1]; 10, 50 or 70 ppm naringenin with combination of rebaudioside E and rebaudioside M, vs rebaudioside M alone or with naringenin): perceived as better | mouthfeel ([1]; 10 to 70 ppm naringenin with rebaudioside E, compared to rebaudioside E base alone): increased | overall perception ([1]; 300 ppm naringenin, Table E base with rebaudioside E 300 ppm): perceived as negative | overall perception ([1]; 300 ppm naringenin, Table E base with rebaudioside M 300 ppm): perceived as negative | overall perception ([1]; 300 ppm naringenin, Table E base with rebaudiosides E and M 150 ppm each): perceived as negative | suitability of naringenin level ([1]; 300 ppm naringenin, across all bases): too high | sweetness profiles ([1]; about 10 ppm to 70 ppm naringenin, Table E base with rebaudioside E 150 ppm and rebaudioside M 150 ppm): significantly improved | cloying mouthfeel and aftertaste ([1]; about 10 ppm to about 70 ppm naringenin, Table E base with rebaudiosides E and M 150 ppm each): diminished | mouthfeel ([1]; higher naringenin concentrations, particularly 300 ppm, Table E base with rebaudioside M 300 ppm, some participants): cloying mouthfeel | sweetness in the middle of the profile ([1]; naringenin added to Table E base with rebaudioside E 300 ppm): increased | taste character / mouthfeel ([1]; naringenin added to Table E base with rebaudioside M 300 ppm): sticky sweet
